16 compounds from ChEMBL document CHEMBL1201862, “PubChem BioAssay data set” (2004) can be followed below.

Assay [1] deals with T1, Low molecular weight phosphotyrosine protein phosphatase (Homo sapiens, UniProt P24666).
T1 sequence (P24666 whole entry): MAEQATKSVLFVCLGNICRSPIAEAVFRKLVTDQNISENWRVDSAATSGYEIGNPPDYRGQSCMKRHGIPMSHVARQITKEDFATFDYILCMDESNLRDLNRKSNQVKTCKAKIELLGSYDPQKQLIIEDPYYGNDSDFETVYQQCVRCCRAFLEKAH
The format is functional. Particulars: read-out: IC50_Mean.

For assay [2], the target named is Ras and Rab interactor 1/Tyrosine-protein kinase ABL1 (Homo sapiens, UniProt P00519+Q13671). The assay is classed as functional.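 Also: biochemical TR-FRET dose-response test measuring inhibition of binding between Rin1 and Abl proteins.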
Assay [3] can be described thus: viability of uninfected HEp-2 cells – cell-based, HTS, cytotoxicity control for RSV inhibitor project, dose response (AID 2410). The format is functional. Particulars: human respiratory syncytial virus.
Assay [4] can be described thus: non-specific 3'UTR reporter inhibition in Clone20-Shn3RL – cell-based, Renilla luciferase, cherry-picked, counter-screen for Shn3 inhibitor project, dose response (AID 624133). The assay is classed as functional.
The nature of assay [5]: reduction of Shn3 3'UTR-driven luciferase in osteoblasts – cell-based, Clone20 osteoblasts, firefly luciferase, cherry-picked, dose response (AID 624132).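 Also: firefly luciferase luminescence from reporter carrying the Shn3 3'UTR in osteoblasts.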 The format is functional.
Assay [6] can be described thus: loss of viability in HepG2 cells – cell-based, CellTiter-Glo, cherry-picked, cytotoxicity control for Shn3 inhibitor project, dose response (AID 624134). The format is functional.
Assay [7] has as its target T2, Hepatocyte nuclear factor 4-alpha (Homo sapiens, UniProt P41235).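 Also: biochemical luminescence-based dose-response counterscreen measuring inhibition of HNF4 dimerization, run alongside a screen for blockers of ABHD5–perilipin-5 interaction; split luciferase complementation of HNF4 fusion proteins in cell lysate measuring dimerization.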
T2 sequence (P41235 whole entry): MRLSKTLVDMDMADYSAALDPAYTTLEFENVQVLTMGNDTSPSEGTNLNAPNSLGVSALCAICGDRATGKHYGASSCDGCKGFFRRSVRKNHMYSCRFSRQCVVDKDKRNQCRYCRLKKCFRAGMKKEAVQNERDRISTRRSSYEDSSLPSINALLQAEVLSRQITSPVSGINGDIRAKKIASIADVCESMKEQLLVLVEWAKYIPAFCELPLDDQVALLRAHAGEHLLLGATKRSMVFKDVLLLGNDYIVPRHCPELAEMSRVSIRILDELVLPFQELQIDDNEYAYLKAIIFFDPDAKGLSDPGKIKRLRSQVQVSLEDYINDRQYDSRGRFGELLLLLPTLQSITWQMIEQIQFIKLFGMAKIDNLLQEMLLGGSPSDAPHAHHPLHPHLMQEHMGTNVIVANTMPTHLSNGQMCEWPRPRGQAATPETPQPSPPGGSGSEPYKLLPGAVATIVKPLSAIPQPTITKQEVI
The format is functional, cell-based.

The target in assay [8] is T3, Short transient receptor potential channel 4 (Mus musculus, UniProt Q9QUQ5).
T3 sequence (Q9QUQ5 whole entry): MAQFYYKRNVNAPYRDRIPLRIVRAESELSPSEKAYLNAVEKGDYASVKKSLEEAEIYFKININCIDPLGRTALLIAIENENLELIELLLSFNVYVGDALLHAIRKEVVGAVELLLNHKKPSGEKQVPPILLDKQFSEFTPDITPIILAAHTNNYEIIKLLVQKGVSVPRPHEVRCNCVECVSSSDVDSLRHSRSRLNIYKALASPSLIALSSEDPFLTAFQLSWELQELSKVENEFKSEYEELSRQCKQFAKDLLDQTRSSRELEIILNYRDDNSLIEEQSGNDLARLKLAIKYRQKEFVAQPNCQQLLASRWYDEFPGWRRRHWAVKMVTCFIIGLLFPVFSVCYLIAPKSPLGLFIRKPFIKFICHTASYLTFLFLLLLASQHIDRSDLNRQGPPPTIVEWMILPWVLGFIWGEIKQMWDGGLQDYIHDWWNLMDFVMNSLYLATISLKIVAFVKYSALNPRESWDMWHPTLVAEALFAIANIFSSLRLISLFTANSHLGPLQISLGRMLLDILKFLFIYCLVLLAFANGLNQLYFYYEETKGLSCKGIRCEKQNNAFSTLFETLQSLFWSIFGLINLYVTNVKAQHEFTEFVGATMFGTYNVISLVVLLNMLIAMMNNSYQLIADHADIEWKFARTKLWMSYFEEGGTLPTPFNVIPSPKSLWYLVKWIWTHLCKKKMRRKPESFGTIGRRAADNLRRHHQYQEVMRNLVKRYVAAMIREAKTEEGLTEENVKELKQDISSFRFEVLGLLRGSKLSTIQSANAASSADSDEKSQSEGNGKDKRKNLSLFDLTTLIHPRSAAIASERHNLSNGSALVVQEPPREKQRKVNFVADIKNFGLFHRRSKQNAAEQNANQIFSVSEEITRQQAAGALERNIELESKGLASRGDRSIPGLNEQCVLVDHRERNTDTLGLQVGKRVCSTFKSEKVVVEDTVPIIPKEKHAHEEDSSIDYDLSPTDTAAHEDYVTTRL
The experiment in a line: calcium entry via TRPC4 opening agents – cell-based, HEK293 TRPC4/mu-opioid, Fluo-4 calcium, dose response (AID 434937). The assay is classed as functional.

Assay [9] in a line: NIH3T3 cell viability loss – ATP luminescence, mouse fibroblasts, counter-screen, dose response (AID 2010).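 Also: cells exposed to compound for about 90 hours before reading.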 The format is functional, cell-based.
Assay [10] can be described thus: Trypanosoma cruzi growth suppression in host cells – NIH3T3 host cells, beta-gal luminescence, confirmation (AID 2044).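 Also: intracellular parasites grown in NIH/3T3 mouse fibroblasts as host cells; luminescent beta-galactosidase reporter signal from transgenic T. cruzi replicating inside host cells; inhibitors lower the luminescence signal.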 The assay is classed as functional, cell-based.
The target of assay [11] is T4, Coagulation factor XII (Homo sapiens, UniProt P00748).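 Also: activated factor XIIa alpha cleaving a fluorogenic AMC peptide substrate; inhibitor potency from loss of enzyme activity.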
T4 sequence (P00748 whole entry): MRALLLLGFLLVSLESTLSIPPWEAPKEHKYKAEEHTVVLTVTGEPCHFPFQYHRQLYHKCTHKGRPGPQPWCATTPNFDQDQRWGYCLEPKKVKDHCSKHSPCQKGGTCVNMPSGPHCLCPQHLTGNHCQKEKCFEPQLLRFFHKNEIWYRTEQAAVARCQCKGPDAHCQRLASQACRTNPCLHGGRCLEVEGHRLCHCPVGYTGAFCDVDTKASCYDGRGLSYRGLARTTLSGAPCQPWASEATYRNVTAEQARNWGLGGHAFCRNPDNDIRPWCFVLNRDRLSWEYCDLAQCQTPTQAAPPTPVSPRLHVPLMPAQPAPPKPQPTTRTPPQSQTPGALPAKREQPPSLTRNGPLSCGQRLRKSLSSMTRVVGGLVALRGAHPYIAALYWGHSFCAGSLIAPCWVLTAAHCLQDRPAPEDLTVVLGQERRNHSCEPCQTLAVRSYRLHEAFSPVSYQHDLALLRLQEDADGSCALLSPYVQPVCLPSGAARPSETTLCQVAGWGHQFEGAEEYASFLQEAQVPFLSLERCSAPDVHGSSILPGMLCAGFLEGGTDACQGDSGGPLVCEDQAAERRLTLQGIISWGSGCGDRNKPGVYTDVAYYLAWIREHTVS
The assay is classed as functional.

A short description of assay [12]: Vero E6 cell cytotoxicity, dose response, cytotoxicity control for non-replicating M. tuberculosis project, secondary assay (AID 492998). The format is functional, VeroE6. The note with it: Vero C1008.
A short description of assay [13]: cells. The assay is classed as functional.
Assay [14] relates to H9c2. As to the kind of experiment: cells. Particulars: Rattus norvegicus, H9c2, Myocardium. The assay is classed as functional, cell-based.
Assay [15] addresses Melanocortin receptor 4 (Homo sapiens, UniProt P32245). The format is functional, cell-based.
Assay [16] is described as follows: HEK-293T viability loss after treatment – luminescence, T-cell screen hits, cytotoxicity control for TCR NF-kB inhibitor project, dose response (AID 489026).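 Also: cells exposed to compound about 14 hours before the viability readout.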 The assay is classed as functional, cell-based.
The target in assay [17] is DNA dC->dU-editing enzyme APOBEC-3G (Homo sapiens, UniProt Q9HC16). The assay is classed as functional.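 Also: Dose-response counterscreen measuring inhibition of APOBEC3G DNA deaminase activity, run while confirming APOBEC3A inhibitors.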
In assay [18] the target is DNA dC->dU-editing enzyme APOBEC-3A (Homo sapiens, UniProt P31941). As to the kind of experiment: Dose Response confirmation of small molecule APOBEC3A DNA Deaminase Inhibitors via a fluorescence-based single-stranded DNA deaminase assay. [Related pubchem assays (depositor defined):AID493011, AID493024]. The assay is classed as functional.

Each structure is given as a SMILES string. Activity calls are given as the source filed them.
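For IC50 Mean in this document: Dose-response confirmation assay measuring inhibition of LMPTP enzyme activity by fluorescence intensity read-out.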

Sequence of Ras and Rab interactor 1/Tyrosine-protein kinase ABL1 (P00519 whole entry): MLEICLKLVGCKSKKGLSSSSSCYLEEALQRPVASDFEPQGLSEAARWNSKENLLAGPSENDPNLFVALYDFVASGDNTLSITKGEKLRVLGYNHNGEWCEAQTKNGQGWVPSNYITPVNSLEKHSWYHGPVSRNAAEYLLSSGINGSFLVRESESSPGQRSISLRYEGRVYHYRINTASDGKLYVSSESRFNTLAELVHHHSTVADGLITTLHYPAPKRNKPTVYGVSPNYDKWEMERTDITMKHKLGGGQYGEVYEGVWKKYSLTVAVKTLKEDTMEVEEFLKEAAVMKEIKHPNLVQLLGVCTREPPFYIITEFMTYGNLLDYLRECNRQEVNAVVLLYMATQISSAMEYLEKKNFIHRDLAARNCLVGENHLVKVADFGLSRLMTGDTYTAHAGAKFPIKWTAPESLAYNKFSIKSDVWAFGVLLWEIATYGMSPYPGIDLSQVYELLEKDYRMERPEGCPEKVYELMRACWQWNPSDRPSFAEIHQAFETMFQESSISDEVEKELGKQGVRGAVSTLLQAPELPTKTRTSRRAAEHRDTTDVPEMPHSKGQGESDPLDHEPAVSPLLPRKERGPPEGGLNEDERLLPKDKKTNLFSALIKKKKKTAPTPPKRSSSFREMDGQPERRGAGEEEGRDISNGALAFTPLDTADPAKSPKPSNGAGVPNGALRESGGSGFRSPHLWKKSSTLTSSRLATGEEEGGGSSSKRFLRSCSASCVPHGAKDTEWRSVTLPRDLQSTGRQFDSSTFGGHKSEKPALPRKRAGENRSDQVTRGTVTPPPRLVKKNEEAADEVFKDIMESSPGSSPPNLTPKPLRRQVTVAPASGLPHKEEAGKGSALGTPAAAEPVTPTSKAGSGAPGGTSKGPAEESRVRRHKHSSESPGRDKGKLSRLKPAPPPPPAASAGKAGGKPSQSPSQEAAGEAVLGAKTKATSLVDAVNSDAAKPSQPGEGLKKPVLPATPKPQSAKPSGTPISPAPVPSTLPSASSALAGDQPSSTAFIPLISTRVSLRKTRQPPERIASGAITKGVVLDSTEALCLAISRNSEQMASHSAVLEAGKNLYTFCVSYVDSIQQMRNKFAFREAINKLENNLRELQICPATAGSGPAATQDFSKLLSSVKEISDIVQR
Sequence of Ras and Rab interactor 1/Tyrosine-protein kinase ABL1 (Q13671 whole entry): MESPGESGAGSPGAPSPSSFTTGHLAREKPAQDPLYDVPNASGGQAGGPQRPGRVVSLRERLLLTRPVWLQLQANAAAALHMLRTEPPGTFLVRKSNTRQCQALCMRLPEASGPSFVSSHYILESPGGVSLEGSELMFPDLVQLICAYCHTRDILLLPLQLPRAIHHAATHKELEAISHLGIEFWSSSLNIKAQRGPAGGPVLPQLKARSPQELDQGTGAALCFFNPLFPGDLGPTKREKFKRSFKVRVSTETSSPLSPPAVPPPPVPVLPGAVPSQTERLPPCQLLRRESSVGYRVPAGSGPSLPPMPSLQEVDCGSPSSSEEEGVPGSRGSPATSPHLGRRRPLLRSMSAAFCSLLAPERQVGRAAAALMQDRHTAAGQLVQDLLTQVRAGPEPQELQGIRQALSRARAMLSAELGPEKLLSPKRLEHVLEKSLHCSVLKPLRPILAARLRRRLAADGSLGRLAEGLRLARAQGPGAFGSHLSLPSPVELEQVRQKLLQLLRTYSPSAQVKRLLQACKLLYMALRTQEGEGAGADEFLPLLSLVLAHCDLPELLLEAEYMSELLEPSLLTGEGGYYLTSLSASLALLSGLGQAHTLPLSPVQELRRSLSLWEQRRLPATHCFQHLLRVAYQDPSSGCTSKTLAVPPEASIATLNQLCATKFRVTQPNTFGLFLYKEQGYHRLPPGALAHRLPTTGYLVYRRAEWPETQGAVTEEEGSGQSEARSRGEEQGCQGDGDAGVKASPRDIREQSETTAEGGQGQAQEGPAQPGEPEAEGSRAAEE
Sequence of DNA dC->dU-editing enzyme APOBEC-3G (Q9HC16 whole entry): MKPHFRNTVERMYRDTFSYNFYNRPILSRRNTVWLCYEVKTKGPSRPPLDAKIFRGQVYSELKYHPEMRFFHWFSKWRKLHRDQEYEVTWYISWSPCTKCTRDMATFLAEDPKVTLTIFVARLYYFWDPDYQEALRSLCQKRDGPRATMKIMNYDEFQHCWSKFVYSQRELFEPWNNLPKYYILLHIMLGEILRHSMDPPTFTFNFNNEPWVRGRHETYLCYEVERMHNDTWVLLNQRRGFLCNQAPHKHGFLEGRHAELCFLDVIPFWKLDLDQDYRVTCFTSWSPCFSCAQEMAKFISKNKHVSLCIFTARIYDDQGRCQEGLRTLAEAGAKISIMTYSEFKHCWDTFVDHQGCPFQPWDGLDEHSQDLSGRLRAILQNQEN
Sequence of DNA dC->dU-editing enzyme APOBEC-3A (P31941 whole entry): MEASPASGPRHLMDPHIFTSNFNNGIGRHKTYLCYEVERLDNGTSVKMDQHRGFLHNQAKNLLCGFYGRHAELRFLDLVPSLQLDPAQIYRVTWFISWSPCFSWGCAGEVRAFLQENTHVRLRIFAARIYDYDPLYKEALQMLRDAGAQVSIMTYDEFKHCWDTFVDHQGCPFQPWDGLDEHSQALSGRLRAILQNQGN
Sequence of Melanocortin receptor 4 (P32245 whole entry): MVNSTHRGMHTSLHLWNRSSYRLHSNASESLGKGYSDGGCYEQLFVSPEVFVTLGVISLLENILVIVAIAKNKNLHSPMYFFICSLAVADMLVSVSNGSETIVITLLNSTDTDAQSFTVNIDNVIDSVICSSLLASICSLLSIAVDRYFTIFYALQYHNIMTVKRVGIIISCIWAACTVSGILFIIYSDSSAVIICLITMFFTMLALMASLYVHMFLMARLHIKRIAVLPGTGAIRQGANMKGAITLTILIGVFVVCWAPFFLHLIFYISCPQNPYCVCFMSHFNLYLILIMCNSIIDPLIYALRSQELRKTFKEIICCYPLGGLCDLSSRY

Consider `CCn1cc(C(=O)O)c(=O)c2cc(F)c(N3CCN(C(=S)NC(=O)c4ccccc4Br)CC3)cc21`, for which, in assay [1], the IC50 was 4.66 µM (active). For `Cc1cccc(N(Cc2ccccc2)C(=O)Cc2ccc(S(=O)(=O)N3CCOCC3)s2)c1`, the IC50 in assay [2] is 18.6 µM (inactive). The CC50 in assay [3] is 22 µM (active). Turning to `Cc1ccc2nc(-c3cccc(SC4CCCCC4)c3)c(NCc3ccccc3)n2c1`, the results for the AC50 in assay [4], in assay [5] and in assay [6] were 5.3 µM (active), 3.53 µM (active) and > 70 µM (inactive), respectively. Regarding `CCCCCNC(=O)C(c1ccccc1F)n1c(=O)c(-c2ccco2)nc2ccccc21` (stereo not given), the IC50 in [7] was 0.97 µM (active). As to `C=CCn1c2ccccc2c2nnc(SCc3[nH]c(=O)[nH]c3C(=O)CCCCC(=O)OCC)nc21`, the IC50 in assay [2] was 2.19 µM (active).

`COc1ccc(CCNCc2ccc(SC)cc2)cc1`: the EC50 is 5.31 µM (active) in assay [8], > 60 µM (not active) in assay [9] and 0.225 µM (active) in [10]. For the compound `O=C(NCc1ccccc1)C(c1ccc(C(F)(F)F)cc1)n1c(=O)c(-c2ccco2)nc2ccccc21` (stereo not given), the IC50 in [7] is 2.02 µM (active). For `CC(=O)Nc1ccc(NC(=O)CCn2c(=S)oc3ccccc32)cc1`, the IC50 in assay [11] is > 50 µM (inactive). With `O=C(N/N=C/c1ccccn1)c1ccccc1`, the CC50 in assay [12] was > 20 µM (active). Moreover, the IC50 in assay [13] was > 50 µM (active). In the case of `CC(=O)c1cccc(-c2cnc3c(NC=O)cc(-c4ccccc4F)cn23)c1`, the IC50 in [14] is > 79 µM (inactive). In addition, in assay [15], the EC50 is > 89.2 µM (inactive). `CCOC(=O)c1[nH]c(C)c(C(=O)Nc2cc(Cl)ccc2C)c1C`: the IC50 in assay [16] is > 80 µM (inactive). Turning to `COCCN(C(=O)COC(=O)CNC(=O)c1cccs1)c1c(N)n(Cc2ccccc2)c(=O)[nH]c1=O`, the IC50 in assay [17] is 10.8 µM (active); in assay [18], 8.35 µM (active).

For the compound `Brc1cccc(/C=N/Nc2nn[nH]n2)c1`, the IC50 in [11] is > 50 µM (inactive). For `Cc1sc2ncnc(NCC(c3ccco3)N3CCCC3)c2c1C` (stereo not given), in assay [8], the EC50 is 0.0173 µM (active).

`COc1ccc(/C=N/NC(=O)C(C)Sc2ccccn2)cc1[N+](=O)[O-]` (stereo not given): the results for the IC50 in assay [17] and in assay [18] were 7.71 µM (active) and 6.02 µM (active), respectively. `CCCCN(CC)CCNC(=O)Cn1cc2c(n1)-c1c(oc(C(=O)N3CCCC3)c1C)CC2`: in assay [8], the 50% effective concentration (EC50) is 0.267 µM (active).
